Drawing on US20150018546A1, “HETEROCYCLIC COMPOUND HAVING ANTI-HIV ACTIVITY” (TOYAMA CHEMICAL CO., LTD., priority 2012, published 2015), this text covers IC50 for 39 molecules.

Where two headings read alike, the source gives them in different places.

The subject of this test is HIV-1 (JRCSF). The test can be described thus: Anti-HIV activity in MaRBLE cells infected with HIV-1 (JRCSF), luciferase readout. The format is cell-based. The following applies: Human immunodeficiency virus 1, 168 h, read-out: Anti-HIV activity IC50. On the procedure:
This test was conducted with reference to Journal of Clinical Microbiology, 2007, Vol. 45, p. 477-487.
The anti-HIV activity was evaluated using MaRBLE cells in which a luciferase gene to be expressed under the control of HIV-1 LTR and a CCR5 gene, etc. were introduced in human T lymphocyte-derived HPB-M(a).
A fresh medium or each appropriately diluted test compound was dispensed to 96-well plates to prepare drug solution-containing plates.
The MaRBLE cells were suspended in RPMI1640 containing 10% FCS (fetal calf serum) and penicillin/streptomycin and infected with HIV-1 (JRCSF). Then, the cells were inoculated to the drug solution-containing plates (1×10^5 cells/well). The same number of uninfected cells were inoculated as a control group to the drug solution-containing plates.
After culture at 37° C. for 7 days in a 5% CO2 atmosphere, the intracellular luciferase activity was measured using Steady-Glo Luciferase assay system (Promega Corp.).
The rate of viral proliferation was determined according to the following expression:
Rate of viral proliferation(%)=(A/B)×100
A=(Firefly luciferase activity of the compound-supplemented well)−(Firefly luciferase activity of the uninfected cells)
B=(Firefly luciferase activity of the compound-free well)−(Firefly luciferase activity of the uninfected cells)
IC50 of the compound was calculated by a plot with concentration as the logarithm and the rate of viral proliferation as the real part using the FORECAST function (linear regression method) of Microsoft Office Excel 2003.

[1] abbreviates: MaRBLE cells (human T lymphocyte-derived HPB-M(a)) infected with HIV-1 (JRCSF), 7 days culture, rate of viral proliferation by luciferase activity.

One may read the IC50 as the concentration that inhibits the measured activity by half. For the molecule `Cc1ncnc2c1c(NCc1nc3ccccc3[nH]1)cc(=O)n2O` [Example 55, 5-(((1H-benzimidazol-2-yl)methyl)amino)-8-hydroxy-4-methylpyrido[2,3-d]pyrimidin-7(8H)-one], under setting [1], the IC50 worked out at 450 nM. Same read-out and setting: the figure for `Cc1ncnc2c1c(NCc1ccc(N3CCCCC3)nc1)cc(=O)n2O` [Example 56, 8-hydroxy-4-methyl-5-(((6-(piperidin-1-yl)pyridin-3-yl)methyl)amino)pyrido[2,3-d]pyrimidin-7(8H)-one] is 900 nM; for `Cc1ncnc2c1c(NCc1cccnc1N1CCOCC1)cc(=O)n2O` [Example 57, 8-hydroxy-4-methyl-5-(((2-(morpholin-4-yl)pyridin-3-yl)methyl)amino)pyrido[2,3-d]pyrimidin-7(8H)-one] it is 85 nM. Same read-out and setting: the result for `Cc1ncnc2c1c(NCc1ccc(OCC(F)(F)F)nc1)cc(=O)n2O` [Example 58, 8-hydroxy-4-methyl-5-(((6-(2,2,2-trifluoroethoxy)pyridin-3-yl)methyl)amino)pyrido[2,3-d]pyrimidin-7(8H)-one] reads 94 nM; that for `Cc1ncnc2c1c(NC(c1ccccc1)c1ccccc1)cc(=O)n2O` [Example 59, 5-((diphenylmethyl)amino)-8-hydroxy-4-methylpyrido[2,3-d]pyrimidin-7(81-1)-one], 160 nM.

Consider `O=c1cc(NCc2ccccc2)c2c(-c3ccccc3)ncnc2n1O` [Example 60, 5-(benzylamino)-8-hydroxy-4-phenylpyrido[2,3-d]pyrimidin-7(8H)-one], for which the IC50 under setting [1] was 190 nM. Same read-out and setting: the result for `O=c1cc(O)c2c(-c3ccccc3)ncnc2n1O` [Example 61, 5,8-dihydroxy-4-phenylpyrido[2,3-d]pyrimidin-7(8H)-one] reads 490 nM. Turning to `O=C(NCc1ccccc1)c1ncnc2c1c(O)cc(=O)n2O` [Example 63, N-benzyl-5,8-dihydroxy-7-oxo-7,8-dihydropyrido[2,3-d]pyrimidine-4-carboxamide], the half-maximal inhibitory concentration (IC50) under setting [1] was 870 nM. Still for that read-out and setting: the figure for `Cc1ncnc2c1c(O)c(-c1ccccc1)c(=O)n2O` [Example 64, 5,8-dihydroxy-4-methyl-6-phenylpyrido[2,3-d]pyrimidin-7(8H)-one] is 350 nM; for `O=c1cc(O)c2c(Cc3ccccc3)ncnc2n1O` [Example 66, 4-benzyl-5,8-dihydroxypyrido[2,3-d]pyrimidin-7(8H)-one] it is 560 nM; for `O=c1c(-c2ccccc2)c(O)c2c(-c3ccccc3)ncnc2n1O` [Example 67, 5,8-dihydroxy-4,6-diphenylpyrido[2,3-d]pyrimidin-7(8H)-one] it is 160 nM. On the same count and under the same terms, the figure for `Cc1c(O)c2c(-c3ccccc3)ncnc2n(O)c1=O` [Example 68, 5,8-dihydroxy-6-methyl-4-phenylpyrido[2,3-d]pyrimidin-7(8H)-one] is 250 nM; for `O=C(NCc1ccccc1)c1cc2c(NCc3ccccc3)ncnc2n(O)c1=O` [Example 70, N-benzyl-4-(benzylamino)-8-hydroxy-7-oxo-7,8-dihydropyrido[2,3-d]pyrimidine-6-carboxamide] it is 790 nM. The same measure, in the same setting: the result for `Cc1ncnc2c1c(NCc1ccccc1-c1cccnc1)cc(=O)n2O` [Example 72, 8-hydroxy-4-methyl-5-((2-(pyridin-3-yl)benzyl)amino)pyrido[2,3-d]pyrimidin-7(8H)-one] reads 150 nM.

Turning to `O=c1cc(O)c2c(O)ncnc2n1O` [Example 77, 4,5,8-trihydroxypyrido[2,3-d]pyrimidin-7(8H)-one], the half-inhibitory concentration (IC50) under setting [1] is 590 nM. On the same count and under the same terms, the figure for `O=C(NCc1ccccc1)c1c(O)c2c(NCc3ccccc3)ncnc2n(O)c1=O` [Example 78, N-benzyl-4-(benzylamino)-5,8-dihydroxy-7-oxo-7,8-dihydropyrido[2,3-d]pyrimidine-6-carboxamide] is 300 nM; for `O=c1cc(O)c2c(NCc3ccccc3)ncnc2n1O` [Example 79, 4-(benzylamino)-5,8-dihydroxypyrido[2,3-d]pyrimidine-7(8H)-one] it is 820 nM; for `O=c1cc(O)c2c(NCCc3ccccc3)ncnc2n1O` [Example 80, 5,8-dihydroxy-4-((2-phenylethyl)amino)pyrido[2,3-d]pyrimidine-7(8H)-one] it is 570 nM. On the same count and under the same terms, the result for `O=C(Nc1ccccc1)c1c(O)c2c(Nc3ccccc3)ncnc2n(O)c1=O` [Example 81, 4-anilino-5,8-dihydroxy-7-oxo-N-phenyl-7,8-dihydropyrido[2,3-d]pyrimidine-6-carboxamide] reads 360 nM; that for `Cc1ncnc2c1c(NCc1ccc(C(F)(F)F)nc1)cc(=O)n2O` [Example 83, 8-hydroxy-4-methyl-5-(((6-(trifluoromethyl)pyridin-3-yl)methyl)amino)pyrido[2,3-d]pyrimidine-7(8H)-one], 370 nM. Turning to `CNc1cccc(CNc2cc(=O)n(O)c3ncnc(C)c23)c1` [Example 84, 8-hydroxy-4-methyl-5-((3-(methylamino)benzyl)amino)pyrido[2,3-d]pyrimidin-7(8H)-one], the 50% inhibitory concentration (IC50) stood at 76 nM.

As to `Cc1ncnc2c1c(NCCc1cccnc1)cc(=O)n2O` [Example 85, 8-hydroxy-4-methyl-5-((2-(pyridin-3-yl)ethyl)amino)pyrido[2,3-d]pyrimidin-7(8H)-one], the concentration for half-maximal inhibition (IC50) under setting [1] was 310 nM.

As for `Cc1ncnc2c1c(NCCc1ccncc1)cc(=O)n2O` [Example 86, 8-hydroxy-4-methyl-5-((2-(pyridin-4-yl)ethyl)amino)pyrido[2,3-d]pyrimidin-7(8H)-one], the IC50 under setting [1] was found to be 500 nM. Same read-out and setting: the figure for `Cc1ncnc2c1c(Nc1ccccc1)cc(=O)n2O` [Example 87, 5-anilino-8-hydroxy-4-methylpyrido[2,3-d]pyrimidin-7(8H)-one] is 81 nM. Same read-out and setting: the result for `Cc1ncnc2c1c(NCc1ccc3cc[nH]c3c1)cc(=O)n2O` [Example 88, 8-hydroxy-5-(((1H-indol-6-yl)methyl)amino)-4-methylpyrido[2,3-d]pyrimidin-7(8H)-one] reads 63 nM; that for `Cc1ncnc2c1c(NCc1cccc3[nH]ccc13)cc(=O)n2O` [Example 89, 8-hydroxy-5-(((1H-indol-4-yl)methyl)amino)-4-methylpyrido[2,3-d]pyrimidin-7(8H)-one], 85 nM. `Cc1ncnc2c1c(NC1CCN(C)CC1)cc(=O)n2O` [Example 90, 8-hydroxy-4-methyl-5-((1-methylpiperidin-4-yl)amino)pyrido[2,3-d]pyrimidin-7(8H)-one]: under setting [1], the IC50 amounted to 580 nM. On the same count and under the same terms, the figure for `Cc1ncnc2c1c(NCCc1ccccn1)cc(=O)n2O` [Example 92, 8-hydroxy-4-methyl-5-((2-(pyridin-2-yl)ethyl)amino)pyrido[2,3-d]pyrimidin-7(8H)-one] is 31 nM. On the same count and under the same terms, the figure for `Cc1ncnc2c1c(NCc1ccc3[nH]ccc3c1)cc(=O)n2O` [Example 93, 8-hydroxy-5-(((1H-indol-5-yl)methyl)amino)-4-methylpyrido[2,3-d]pyrimidin-7(8H)-one] is 45 nM; for `Cc1ncnc2c1c(NCc1ccc(-c3ccccc3)nc1)cc(=O)n2O` [Example 94, 8-hydroxy-4-methyl-5-(((6-phenylpyridin-3-yl)methyl)amino)pyrido[2,3-d]pyrimidin-7(8H)-one] it is 43 nM; for `Cc1ncnc2c1c(NCc1cc3ccccc3[nH]1)cc(=O)n2O` [Example 95, 8-hydroxy-5-(((1H-indol-2-yl)methyl)amino)-4-methylpyrido[2,3-d]pyrimidin-7(8H)-one] it is 110 nM. On the same count and under the same terms, the figure for `O=c1cc(NCc2ccc(-c3ccccc3)cc2)c2cncnc2n1O` [Example 97, 5-(((biphenyl-4-yl)methyl)amino)-8-hydroxypyrido[2,3-d]pyrimidin-7(8H)-one] is 200 nM; for `CN(C)c1ccc(CNc2cc(=O)n(O)c3ncncc23)cc1` [Example 102, 5-((4-(dimethylamino)benzyl)amino)-8-hydroxypyrido [2,3-d]pyrimidin-7(8H)-one] it is 210 nM.

Take `O=c1cc(NCc2ccc(O)cc2)c2cncnc2n1O` [Example 103, 8-hydroxy-5-((4-hydroxybenzyl)amino)pyrido[2,3-d]pyrimidin-7(8H)-one]: the IC50 under setting [1] was found to be 200 nM. As to `O=C(NCc1ccccc1)c1c(O)c2cncnc2n(O)c1=O` [Example 105, N-benzyl-5,8-dihydroxy-7-oxo-7,8-dihydropyrido[2,3-d]pyrimidine-6-carboxamide], the 50% inhibitory concentration (IC50) under setting [1] came out at 64 nM. For `Cc1ncnc2c1c(NCc1cccnc1)cc(=O)n2O` [Example 106, 8-hydroxy-4-methyl-5-(((pyridin-3-yl)methyl)amino)pyrido[2,3-d]pyrimidin-7(8H)-one], under setting [1], the IC50 was 80 nM. On the same count and under the same terms, the figure for `O=c1cc(NCc2ccc(O)c(O)c2)c2cncnc2n1O` [Example 108, 5-((3,4-dihydroxybenzyl)amino)-8-hydroxypyrido[2,3-d]pyrimidin-7(8H)-one] is 570 nM; for `Cc1ncnc2c1c(NCc1ccc(O)cc1)cc(=O)n2O` [Example 110, 8-hydroxy-5-((4-hydroxybenzyl)amino)-4-methylpyrido[2,3-d]pyrimidin-7(8H)-one] it is 49 nM; for `Cc1ncnc2c1c(O)c(C(=O)NCc1ccccc1)c(=O)n2O` [Example 111, N-benzyl-5,8-dihydroxy-4-methyl-7-oxo-7,8-dihydropyrido[2,3-d]pyrimidine-6-carboxamide] it is 8.4 nM.
